According to patent US5776959A, “Anticonvulsant and anxiolytic lactam and thiolactam derivatives” (priority 1995, dated 1998):

Assays:
[1] = system: pentylenetetrazol (PTZ) seizures in mice; experiment: Pentylenetetrazol Seizure Threshold Test (PTZ); format: in vivo, mouse (female CF-1); conditions: Mus musculus, 0.5 h, ip, 30 min before pentylenetetrazol 85 mg/kg ip, read-out: Convulsant Challenge ED50, PTZ
Procedure: Pentylenetetrazol Seizure Threshold Test (PTZ)
Anticonvulsant screening was accomplished by methods based on those of Swinyard and Woodhead using female CF-1 strain mice. […] The animals were placed in isolation cages and observed for the next 30 minutes for the presence or absence of a seizure. A threshold convulsion is defined as one episode of clonic spasms that persists for at least a 5-sec period.

[2] = Rotorod Test for Toxicity (neurotoxicity); format: in vivo, mouse; conditions: mouse, in vivo, mice, ip, 30 min
Procedure: (§1) Rotorod Test for Toxicity
(§2) This test is used in mice to assess neurotoxicity. Mice were placed on a 1 in. diameter rod, which rotates at 6 rpm, and tested for maintenance of their equilibrium for 10 min. All mice were pre-tested before a test substance is given. Test compounds are dissolved in 30% polyethylene glycol and given by intraperitoneal (ip) injections in a volume of 0.01 mL/g of body weight. […] This test also measures sedative effect of the compound tested. […] 21, 1985.

[3] = system: maximal electroshock (MES) seizures in mice; experiment: Maximal Electroshock Seizure Test (MES); format: in vivo; conditions: Mus musculus, 0.5 h, ip, 30 min before electroshock 50 mA 0.2 sec, read-out: Convulsant Challenge ED50, MES
Procedure: Maximal Electroshock Seizure Test (MES)
Test compounds were dissolved in 30% polyethylene glycol and given by intraperitoneal (ip) injections in a volume of 0.01 mL/g of body weight. […] Corneal electrodes were applied to the eyes, and an electrical stimulus consisting of a 60-Hz alternating current of 50 mA was delivered for 0.2 sec. The animals were held by hand and released at the time of stimulation for observation of the seizure. Abolition of the hindleg tonic extension component was taken as the endpoint for this test.

neurotoxicity in mice = experiment: Rotorod Test for Toxicity (neurotoxicity); format: in vivo, mouse; conditions: ip, 30 min
Procedure: as §1, §2

[4] = Convulsant activity (observation of seizures in injected mice); conditions: mouse, in vivo, read-out: Convulsive Activity CD50
Procedure: Convulsant activity of test compounds is assessed by monitoring injected mice by monitoring seizures by observing for the onset of myoclonic twitches, generalized clonic seizures and tonic seizures.

sedation in mice = conditions: 100 mg/kg; cited from earlier work
GABAA receptor = experiment: Potentiation of GABA currents in cultured rat hippocampal neurons (GABAA receptor electrophysiology test, whole-cell patch clamp); format: cell-based, rat (Sprague-Dawley)
Procedure: Hippocampal Cell Culture Methods
Under halothane anaesthesia, 1 day old female Sprague-Dawley rats were sacrificed by rapid decapitation and the hippocampi were dissected, minced and incubated in 3 mL of Leibovitz's L-15 containing 1 mg/mL papain and 0.2 mg/mL bovine serum albumin (BSA) for 20 min. at 37° C. The papain solution was removed and the hippocampi were triturated with pasteur pipettes in growth medium. The resulting suspension was centrifuged through 2 mL of medium containing 10 mg/mL trypsin inhibitor and 10 mg/mL BSA. The cells were resuspended into growth medium and plated, 2.5×10^5 cells/dish, on a monolayer of cortical glial cells in 35 mm plastic culture dishes. The culture dishes were pretreated with poly-L-lysine followed by plating of glial cells harvested from the cortices of 2-6 day postnatal rats four days prior to neuron plating. […]
Medium in the culture dishes was replaced with an extracellular solution containing: 140 mM NaCl, 3 mM KCl, 10 mM HEPES, 5 mm MgCl2, and 5.5 mM glucose. Neurons were recorded using the whole cell configuration of the patch clamp technique, (Hamil P O, Marty A, Neher E, Sakmann B, Sakmann J F (1981) "Improved patch-clamp techniques for high resolution current recordings from cells and cell-free membrane patches" Pfluegers Arch., 391, 85-100.) and the neuronal membrane was clamped to a potential of 130 mV. […]

[5] = system: anxiety in mice (plus-maze); experiment: Anxiolytic plus-maze test; format: in vivo, mouse (male NIH Swiss); conditions: for Time spent on Plus-Maze Open Arms (% of Control): mice, ip, 30 min, 5 min test
Description: A modification of the plus-maze test (Lister R G (1987) "The use of a plus-maze to measure anxiety in the mouse" Psychopharmacology, 92, 180-185.) was used to measure the anxiolytic activity of the compounds of this invention in mice. The plus-maze apparatus used in the test consisted of four 30 cm×5 cm arms, two of which were enclosed by 16 cm high walls while the other two were unwalled. The four arms radiated out from a 5×5 cm central platform. The entire maze was elevated 34 cm on legs. The floor parts of the maze were made of wood painted black. The walls were clear plexiglass.
Male mice of the NIH Swiss strain are used in the test which is carried out in a room with no distractions. Test compounds were dissolved in 30% polyethylene glycol and given by intraperitoneal (ip) injections in a volume of 0.01 mL/g of body weight. […] During each 5 minute test, the number of entries to open arms and closed arms and the amount of time spent on each were recorded. A mouse has entered an arm when all four feet are on the arm. Each mouse was used only once. The anxiolytic dose of a test compound is that dose which causes a significant increase in the amount of time the test mouse spends in the open arms of the plus-maze in comparison to the amount of time a control mouse not receiving a test compound spends in the open arms of the maze.

convulsant seizures = conditions: in vivo; cited from earlier work

SMILES | ED50 [1] | TD50 at 0.5 h [2] | ED50 [3] | further results
CCC1(C)CCN(C)C1=O (stereo not drawn) [1,3-Dimethyl-3-ethyl-2-pyrrolidinone] | 259 mg/kg | 520 mg/kg |  | 
O=C1CCCCN1 [2-Piperidinone, reference compound] | > 600 mg/kg | > 600 mg/kg |  | 
O=C1CCCN1 [2-Pyrrolidinone, reference compound] | > 900 mg/kg |  | > 600 mg/kg | Toxicity TD50 (neurotoxicity in mice): > 900 mg/kg
CC1(C)CNC(=O)C1(C)C [3,3,4,4-Tetramethyl-2-pyrrolidinone] |  |  |  | CD50 (convulsant dose, 50%) [4]: 32 mg/kg
CCC1(CC)CCCNC1=O [3,3-Diethyl-2-piperidinone] | 39 mg/kg | 177 mg/kg | 56 mg/kg | sedative activity reported in literature (sedation in mice): weak sedative activity
CCC1(CC)CCNC1=O [3,3-Diethyl-2-pyrrolidinone] | 46 mg/kg |  | 174 mg/kg | % Potentiation Relative to Control (N) (GABAA receptor; compound 1 mM, 3 μM GABA, mean ± SEM, percent of control response (100%)): 274 ± 64%; enhancement of GABA-mediated chloride ion currents (GABAA receptor; cultured rat hippocampal neurons): more effectively than the previously described α-ethyl-α-methyl-γ-thiobutyrolactone; Toxicity TD50 (neurotoxicity in mice): 260 mg/kg; anxiolytic activity ([5]; compared to α-ethyl-α-methyl-γ-thiobutyrolactone, Table 3): significantly stronger anxiolytic activity; Time spent on Plus-Maze Open Arms (% of Control) ([5]; dose 100 mg/kg): 179%; Time spent on Plus-Maze Open Arms (% of Control) ([5]; dose 175 mg/kg): 253%
CCC1(CC)CC(C)(C)NC1=O [3,3-Diethyl-5,5-dimethyl-2-pyrrolidinone] |  |  |  | CD50 (convulsant dose, 50%) [4]: 75 mg/kg
CC1(C)CCNC1=O [3,3-Dimethyl-2-pyrrolidinone, 3,3-dimethyl-2-pyrrolidinone, reference compound] | 708 mg/kg | 900 mg/kg | > 600 mg/kg | anticonvulsant activity reported in literature (convulsant seizures): no anticonvulsant activity
CCC1CCCNC1=O (stereo not drawn) [3-Ethyl-2-Piperidinone, reference compound] | 339 mg/kg | 382 mg/kg |  | 
CCC1(C)CCCNC1=O (stereo not drawn) [3-Ethyl-3-Methyl-2-Piperidinone, 3-ethyl-3-methyl-2-piperidinone] | 162 mg/kg | 382 mg/kg | 198 mg/kg | 
CCC1(Cc2ccccc2)CCCNC1=O (stereo not drawn) [3-Ethyl-3-phenylmethyl-2-piperidinone, 3-ethyl-3-phenylmethyl-2-piperidinone] | 61 mg/kg | 102 mg/kg | 79 mg/kg | 
CCC1CC(C)(C)NC1=O (stereo not drawn) [3-Ethyl-5,5-dimethyl-2-pyrrolidinone] |  |  |  | CD50 (convulsant dose, 50%) [4]: 106 mg/kg
CC1CCCNC1=O (stereo not drawn) [3-Methyl-2-Piperidinone, reference compound] | > 600 mg/kg | > 600 mg/kg | > 600 mg/kg | 
CC1CCNC1=O (stereo not drawn) [3-Methyl-2-pyrrolidinone, reference compound] | > 900 mg/kg | ~900 mg/kg | > 750 mg/kg | 
CC1(Cc2ccccc2)CCCNC1=O (stereo not drawn) [3-Methyl-3-phenylmethyl-2-piperidinone, 3-methyl-3-phenylmethyl-2-piperidinone] | 56 mg/kg | 131 mg/kg | 49 mg/kg | 
O=C1NCCCC1Cc1ccccc1 (stereo not drawn) [3-Phenylmethyl-2-piperidinone, 3-phenylmethyl-2-piperidinone] | 85 mg/kg | 294 mg/kg | 42 mg/kg | 
O=C1NCCC1Cc1ccccc1 (stereo not drawn) [3-Phenylmethyl-2-pyrrolidinone, 3-phenylmethyl-2-pyrrolidinone] | 71 mg/kg |  | 41 mg/kg | Toxicity TD50 (neurotoxicity in mice): 144 mg/kg
CC1(C)CNC(=O)C1 [4,4-Dimethyl-2-pyrrolidinone, reference compound] | 600 mg/kg | > 600 mg/kg |  | 
CCC1(C)CNC(=O)C1 (stereo not drawn) [4-Ethyl-4-Methyl-2-pyrrolidinone, 4-ethyl-4-methyl-2-pyrrolidinone, reference compound] | 327 mg/kg | > 300 mg/kg | > 300 mg/kg | anticonvulsant activity reported in literature (convulsant seizures): much less active
CC1(C)CCC(=O)N1 [5,5-Dimethyl-2-pyrrolidinone] |  |  |  | CD50 (convulsant dose, 50%) [4]: 387 mg/kg
CC1(C)CCSC1=O [α,α-dimethyl-y-thiobutyrolactone] | > 500 mg/kg |  |  | 
